Experimental data published in the NIST ThermoML archive (doi:10.1016/j.tca.2012.12.008).
± gives the expanded uncertainty stated by the source.

Tests used:
[1] = 101 kPa, Liquid; for viscosity: Capillary tube (Ostwald / Ubbelohde) method; for mass density: Vibrating tube method
[2] = xn = mol fraction of the nth substance listed; conditions: 101 kPa, Liquid; for viscosity: Capillary tube (Ostwald / Ubbelohde) method; for mass density: Vibrating tube method

CCCCCC(C)O (stereo not drawn) [2-heptanol]
[1]
Conditions	mass density [kg/m3]	viscosity [mPa·s]
298.15 K	813.18 ± 0.24	5.003 ± 0.037
303.15 K	809.26 ± 0.24	4.152 ± 0.031
308.15 K	805.01 ± 0.24	3.478 ± 0.026
313.15 K	801.14 ± 0.24	2.853 ± 0.022

CCCCC(C)O (stereo not drawn) [2-hexanol]
[1]
Conditions	mass density [kg/m3]	viscosity [mPa·s]
298.15 K	810.14 ± 0.24	4.101 ± 0.031
303.15 K	806.13 ± 0.24	3.411 ± 0.026
308.15 K	802.06 ± 0.24	2.819 ± 0.021
313.15 K	797.96 ± 0.24	2.219 ± 0.017

CCC(C)O (stereo not drawn) [butan-2-ol]
[1]
Conditions	mass density [kg/m3]	viscosity [mPa·s]
298.15 K	802.7 ± 0.24	3.105 ± 0.023
303.15 K	798.3 ± 0.24	2.597 ± 0.02
308.15 K	793.57 ± 0.24	2.153 ± 0.016
313.15 K	789.15 ± 0.24	1.734 ± 0.013

CCC(C)O (stereo not drawn) [butan-2-ol] + CCC(C)=O
[2], x2 = 0
Conditions	mass density [kg/m3]	viscosity [mPa·s]
298.15 K	802.7 ± 0.24	3.105 ± 0.023
303.15 K	798.3 ± 0.24	2.597 ± 0.02
308.15 K	793.57 ± 0.24	2.153 ± 0.016
313.15 K	789.15 ± 0.24	1.734 ± 0.013

CCC(C)=O [butanone]
[1]
Conditions	mass density [kg/m3]	viscosity [mPa·s]
298.15 K	799.48 ± 0.24	0.381 ± 0.004
303.15 K	794.63 ± 0.24	0.368 ± 0.004
308.15 K	789.9 ± 0.24	0.352 ± 0.004
313.15 K	785.52 ± 0.24	0.339 ± 0.004

CCC(C)=O [butanone] + CCCC(C)O
[2], x1 = 1
Conditions	mass density [kg/m3]	viscosity [mPa·s]
298.15 K	799.48 ± 0.24	0.381 ± 0.004
303.15 K	794.63 ± 0.24	0.368 ± 0.004
308.15 K	789.9 ± 0.24	0.352 ± 0.004
313.15 K	785.52 ± 0.24	0.339 ± 0.004

CCC(C)=O [butanone] + CCCCC(C)O
[2], x1 = 1
Conditions	mass density [kg/m3]	viscosity [mPa·s]
298.15 K	799.48 ± 0.24	0.381 ± 0.004
303.15 K	794.63 ± 0.24	0.368 ± 0.004
308.15 K	789.9 ± 0.24	0.352 ± 0.004
313.15 K	785.52 ± 0.24	0.339 ± 0.004

CCC(C)=O [butanone] + CCCCCC(C)O
[2], x1 = 1
Conditions	mass density [kg/m3]	viscosity [mPa·s]
298.15 K	799.48 ± 0.24	0.381 ± 0.004
303.15 K	794.63 ± 0.24	0.368 ± 0.004
308.15 K	789.9 ± 0.24	0.352 ± 0.004
313.15 K	785.52 ± 0.24	0.339 ± 0.004

CCCC(C)O (stereo not drawn) [pentan-2-ol]
[1]
Conditions	mass density [kg/m3]	viscosity [mPa·s]
298.15 K	805.41 ± 0.24	3.478 ± 0.026
303.15 K	801.21 ± 0.24	2.801 ± 0.021
308.15 K	796.64 ± 0.24	2.335 ± 0.018
313.15 K	792.51 ± 0.24	1.993 ± 0.015

CC(C)O [propan-2-ol]
[1]
Conditions	mass density [kg/m3]	viscosity [mPa·s]
298.15 K	781.09 ± 0.24	2.055 ± 0.016
303.15 K	776.77 ± 0.24	1.788 ± 0.014
308.15 K	771.87 ± 0.24	1.563 ± 0.012
313.15 K	767.37 ± 0.24	1.379 ± 0.011

CC(C)O [propan-2-ol] + CCC(C)=O
[2], x2 = 0
Conditions	mass density [kg/m3]	viscosity [mPa·s]
298.15 K	781.09 ± 0.24	2.055 ± 0.016
303.15 K	776.77 ± 0.24	1.788 ± 0.014
308.15 K	771.87 ± 0.24	1.563 ± 0.012
313.15 K	767.37 ± 0.24	1.379 ± 0.011
